ChEMBL document CHEMBL2413072, “Synthesis and in vitro anticancer studies of novel C-2 arylidene congeners of lantadenes” (2013)
Calls of active or inactive are those of the source. The rule behind the calls is not given here.

How the values were obtained:
Assay type in all cases: functional
NCI-H226 [1] = experiment: Growth inhibition of human NCI-H226 cells assessed as growth inhibition at 10 uM by sulforhodamine B assay; conditions: read-out: GI
COLO 205 [2] = experiment: Growth inhibition of human COLO205 cells assessed as cell growth at 10 uM by sulforhodamine B assay; conditions: read-out: Activity
NCI-H522 = experiment: Growth inhibition of human NCI-H522 cells assessed as growth inhibition at 10 uM by sulforhodamine B assay; conditions: read-out: GI
SNB-75 [3] = experiment: Growth inhibition of human SNB75 cells assessed as growth inhibition at 10 uM by sulforhodamine B assay; conditions: read-out: GI
SK-OV-3 [4] = experiment: Growth inhibition of human SKOV3 cells assessed as cell growth at 10 uM by sulforhodamine B assay; conditions: read-out: Activity
MDA-MB-468 = experiment: Growth inhibition of human MDA-MB-468 cells assessed as cell growth at 10 uM by sulforhodamine B assay; conditions: read-out: Activity
OVCAR-8 = experiment: Growth inhibition of human OVCAR8 cells assessed as growth inhibition at 10 uM by sulforhodamine B assay; conditions: read-out: GI
786-0 = experiment: Growth inhibition of human 786-0 cells assessed as growth inhibition at 10 uM by sulforhodamine B assay
SNB-75 [5] = experiment: Growth inhibition of human SNB75 cells assessed as cell growth at 10 uM by sulforhodamine B assay; conditions: read-out: Activity
OVCAR-3 = experiment: Growth inhibition of human OVCAR3 cells assessed as cell growth at 10 uM by sulforhodamine B assay; conditions: read-out: Activity
HOP-92 = experiment: Growth inhibition of human HOP92 cells assessed as cell growth at 10 uM by sulforhodamine B assay; conditions: read-out: Activity
SK-OV-3 [6] = experiment: Growth inhibition of human SKOV3 cells assessed as growth inhibition at 10 uM by sulforhodamine B assay; conditions: read-out: GI
MCF7 = experiment: Growth inhibition of human MCF7 cells assessed as growth inhibition at 10 uM by sulforhodamine B assay; conditions: read-out: GI
[7] = Growth inhibition of human EKVX cells assessed as cell growth at 10 uM by sulforhodamine B assay; conditions: read-out: Activity
[8] = Growth inhibition of human NCI-ADR-RES cells assessed as growth inhibition at 10 uM by sulforhodamine B assay; conditions: read-out: GI
SK-MEL-28 = experiment: Growth inhibition of human SK-MEL-28 cells assessed as cell growth at 10 uM by sulforhodamine B assay; conditions: read-out: Activity
[9] = Growth inhibition of human HCC2998 cells assessed as growth inhibition at 10 uM by sulforhodamine B assay; conditions: HCC 2998, read-out: GI
[10] = Growth inhibition of human NCI-ADR-RES cells assessed as cell growth at 10 uM by sulforhodamine B assay; conditions: read-out: Activity
COLO 205 [11] = experiment: Growth inhibition of human COLO205 cells assessed as growth inhibition at 10 uM by sulforhodamine B assay; conditions: read-out: GI
CCRF-CEM = experiment: Growth inhibition of human CCRF-CEM cells assessed as growth inhibition at 10 uM by sulforhodamine B assay; conditions: read-out: GI
SNB-19 = experiment: Growth inhibition of human SNB19 cells assessed as cell growth at 10 uM by sulforhodamine B assay; conditions: read-out: Activity
HCT-116 = experiment: Growth inhibition of human HCT116 cells assessed as growth inhibition at 10 uM by sulforhodamine B assay; conditions: read-out: GI
DU-145 = experiment: Growth inhibition of human DU145 cells assessed as cell growth at 10 uM by sulforhodamine B assay; conditions: read-out: Activity
NCI-H23 [12] = experiment: Growth inhibition of human NCI-H23 cells assessed as growth inhibition at 10 uM by sulforhodamine B assay; conditions: read-out: GI
ACHN [13] = experiment: Growth inhibition of human ACHN cells assessed as growth inhibition at 10 uM by sulforhodamine B assay; conditions: read-out: GI
NCI-H23 [14] = experiment: Growth inhibition of human NCI-H23 cells assessed as cell growth at 10 uM by sulforhodamine B assay; conditions: read-out: Activity
[15] = Growth inhibition of human EKVX cells assessed as growth inhibition at 10 uM by sulforhodamine B assay; conditions: read-out: GI
U-251 = experiment: Growth inhibition of human U251 cells assessed as cell growth at 10 uM by sulforhodamine B assay; conditions: read-out: Activity
NCI-H226 [16] = experiment: Growth inhibition of human NCI-H226 cells assessed as cell growth at 10 uM by sulforhodamine B assay; conditions: read-out: Activity
MDA-MB-231 = experiment: Growth inhibition of human MDA-MB-231 cells assessed as cell growth at 10 uM by sulforhodamine B assay; conditions: read-out: Activity
A549 [17] = experiment: Growth inhibition of human A549/ATCC cells assessed as growth inhibition at 10 uM by sulforhodamine B assay; conditions: read-out: GI
LOX IMVI = experiment: Growth inhibition of human LOXIMVI cells assessed as cell growth at 10 uM by sulforhodamine B assay; conditions: read-out: Activity
NCI-H322M = experiment: Growth inhibition of human NCI-H322M cells assessed as cell growth at 10 uM by sulforhodamine B assay; conditions: read-out: Activity
SF-295 = experiment: Growth inhibition of human SF295 cells assessed as growth inhibition at 10 uM by sulforhodamine B assay
ACHN [18] = experiment: Growth inhibition of human ACHN cells assessed as cell growth at 10 uM by sulforhodamine B assay; conditions: read-out: Activity
UACC-257 = experiment: Growth inhibition of human UACC257 cells assessed as growth inhibition at 10 uM by sulforhodamine B assay; conditions: read-out: GI
HT-29 = experiment: Growth inhibition of human HT-29 cells assessed as cell growth at 10 uM by sulforhodamine B assay; conditions: read-out: Activity
TK-10 = experiment: Growth inhibition of human TK10 cells assessed as growth inhibition at 10 uM by sulforhodamine B assay; conditions: read-out: GI
HOP-62 = experiment: Growth inhibition of human HOP62 cells assessed as cell growth at 10 uM by sulforhodamine B assay; conditions: read-out: Activity
IGROV-1 = experiment: Growth inhibition of human IGROV1 cells assessed as growth inhibition at 10 uM by sulforhodamine B assay; conditions: read-out: GI
SK-MEL-2 = experiment: Growth inhibition of human SK-MEL-2 cells assessed as growth inhibition at 10 uM by sulforhodamine B assay; conditions: read-out: GI
SK-MEL-5 = experiment: Growth inhibition of human SK-MEL-5 cells assessed as cell growth at 10 uM by sulforhodamine B assay; conditions: read-out: Activity
OVCAR-4 = experiment: Growth inhibition of human OVCAR4 cells assessed as growth inhibition at 10 uM by sulforhodamine B assay; conditions: read-out: GI
A498 = experiment: Growth inhibition of human A498 cells assessed as cell growth at 10 uM by sulforhodamine B assay; conditions: read-out: Activity
HL-60(TB) = experiment: Growth inhibition of human HL-60(TB) cells assessed as cell growth at 10 uM by sulforhodamine B assay; conditions: read-out: Activity
MDA-MB-435 = experiment: Growth inhibition of human MDA-MB-435 cells assessed as cell growth at 10 uM by sulforhodamine B assay; conditions: read-out: Activity
A549 [19] = experiment: Growth inhibition of human A549/ATCC cells assessed as cell growth at 10 uM by sulforhodamine B assay; conditions: read-out: Activity
[20] = Growth inhibition of human Hs 578T cells assessed as growth inhibition at 10 uM by sulforhodamine B assay; conditions: read-out: GI

## C/C=C(/C)C(=O)O[C@@H]1CC(C)(C)C[C@H]2C3=CC[C@@H]4[C@@]5(C)CC[C@H](O)C(C)(C)[C@@H]5CC[C@@]4(C)[C@]3(C)CC[C@@]12C(=O)O [Reduced Lantadene A]
NCI-H226 [1]
  inhibition of growth at 10 µM: 57.9%
COLO 205 [2]
  growth at 10 µM: 28.2%
NCI-H522
  inhibition of growth at 10 µM: 50.3%
SNB-75 [3]
  inhibition of growth at 10 µM: 88%
SK-OV-3 [4]
  growth at 10 µM: 41.8%
MDA-MB-468
  growth at 10 µM: 66.1%
OVCAR-8
  inhibition of growth at 10 µM: 42.3%
786-0
  growth inhibition (GI): Active
SNB-75 [5]
  growth at 10 µM: 11.9%
OVCAR-3
  growth at 10 µM: 32%
HOP-92
  growth at 10 µM: -54.2%
SK-OV-3 [6]
  inhibition of growth at 10 µM: 58.2%
MCF7
  inhibition of growth at 10 µM: 39%
[7]
  growth at 10 µM: 36.5%
[8]
  inhibition of growth at 10 µM: 30.2%
SK-MEL-28
  growth at 10 µM: 33.7%
[9]
  inhibition of growth at 10 µM: 73.6%
[10]
  growth at 10 µM: 69.8%
COLO 205 [11]
  inhibition of growth at 10 µM: 71.8%
CCRF-CEM
  inhibition of growth at 10 µM: 54.2%
SNB-19
  growth at 10 µM: -53%
HCT-116
  inhibition of growth at 10 µM: 80%
DU-145
  growth at 10 µM: 74.9%
NCI-H23 [12]
  inhibition of growth at 10 µM: 35.3%
ACHN [13]
  inhibition of growth at 10 µM: 91.9%
NCI-H23 [14]
  growth at 10 µM: 64.7%
[15]
  inhibition of growth at 10 µM: 63.5%
U-251
  growth at 10 µM: 38.2%
NCI-H226 [16]
  growth at 10 µM: 42.1%
MDA-MB-231
  growth at 10 µM: 22.2%
A549 [17]
  inhibition of growth at 10 µM: 72.6%
LOX IMVI
  growth at 10 µM: 42.7%
NCI-H322M
  growth at 10 µM: -8.43%
SF-295
  growth inhibition (GI): Active
ACHN [18]
  growth at 10 µM: 8.12%
UACC-257
  inhibition of growth at 10 µM: 39.4%
HT-29
  growth at 10 µM: 55.8%
TK-10
  inhibition of growth at 10 µM: 33.2%
HOP-62
  growth at 10 µM: 24.3%
IGROV-1
  inhibition of growth at 10 µM: 64.9%
SK-MEL-2
  inhibition of growth at 10 µM: 45.9%
SK-MEL-5
  growth at 10 µM: 53.2%
OVCAR-4
  inhibition of growth at 10 µM: 36.8%
A498
  growth at 10 µM: -31.8%
HL-60(TB)
  growth at 10 µM: -50.8%
MDA-MB-435
  growth at 10 µM: 64.9%
A549 [19]
  growth at 10 µM: 27.4%

## CC(C)=CC(=O)O[C@@H]1CC(C)(C)C[C@H]2C3=CC[C@@H]4[C@@]5(C)CCC(=O)C(C)(C)[C@@H]5CC[C@@]4(C)[C@]3(C)CC[C@@]12C(=O)O
NCI-H226 [1]
  inhibition of growth at 10 µM: 21.8%
COLO 205 [2]
  growth at 10 µM: 71%
NCI-H522
  inhibition of growth at 10 µM: 42.7%
SNB-75 [3]
  inhibition of growth at 10 µM: 30%
SK-OV-3 [4]
  growth at 10 µM: 95.4%
MDA-MB-468
  growth at 10 µM: 64.2%
OVCAR-8
  inhibition of growth at 10 µM: 44.9%
786-0; read-out: GI
  inhibition of growth at 10 µM: 55.9%
SNB-75 [5]
  growth at 10 µM: 70%
OVCAR-3
  growth at 10 µM: 61.3%
HOP-92
  growth at 10 µM: 28.4%
SK-OV-3 [6]
  inhibition of growth at 10 µM: < 10%
MCF7
  inhibition of growth at 10 µM: 50.7%
[7]
  growth at 10 µM: 41.2%
[8]
  inhibition of growth at 10 µM: 40%
SK-MEL-28
  growth at 10 µM: 91.2%
[9]
  inhibition of growth at 10 µM: 47.2%
[20]
  inhibition of growth at 10 µM: 20.4%
[10]
  growth at 10 µM: 60%
COLO 205 [11]
  inhibition of growth at 10 µM: 29%
CCRF-CEM
  inhibition of growth at 10 µM: 74.7%
SNB-19
  growth at 10 µM: 57.3%
HCT-116
  inhibition of growth at 10 µM: 73.4%
DU-145
  growth at 10 µM: 74.5%
NCI-H23 [12]
  inhibition of growth at 10 µM: 46.6%
ACHN [13]
  inhibition of growth at 10 µM: 56.1%
NCI-H23 [14]
  growth at 10 µM: 53.4%
[15]
  inhibition of growth at 10 µM: 58.8%
U-251
  growth at 10 µM: 38.2%
NCI-H226 [16]
  growth at 10 µM: 78.2%
MDA-MB-231
  growth at 10 µM: 71.5%
A549 [17]
  inhibition of growth at 10 µM: 77.8%
LOX IMVI
  growth at 10 µM: 51.2%
NCI-H322M
  growth at 10 µM: 54%
ACHN [18]
  growth at 10 µM: 43.9%
UACC-257
  inhibition of growth at 10 µM: 26.1%
HT-29
  growth at 10 µM: 57.3%
TK-10
  inhibition of growth at 10 µM: 21.9%
HOP-62
  growth at 10 µM: 60.2%
IGROV-1
  inhibition of growth at 10 µM: 37.7%
SK-MEL-2
  inhibition of growth at 10 µM: 21.8%
SK-MEL-5
  growth at 10 µM: 47.9%
OVCAR-4
  inhibition of growth at 10 µM: 28.7%
A498
  growth at 10 µM: 101%
HL-60(TB)
  growth at 10 µM: 10.2%
MDA-MB-435
  growth at 10 µM: 89.6%
A549 [19]
  growth at 10 µM: 22.2%
